Reference: the NIST ThermoML archive (doi:10.1016/j.tca.2014.10.002)
“And” between values parts separate entries of the source, which are not always exact repeats. Equal values may be shown once.

Assays:
[1] = DTA
[2] = Molar enthalpy of transition or fusion; conditions: DSC
[3] = molar heat capacity at constant pressure; conditions: 101.33 kPa

OC1CCCCCCC1 [cyclooctanol]
Conditions | Molar enthalpy of transition or fusion, [2] [kcal/mol] | Triple point temperature, [1] [K]
Crystal 1 | 0.457 | 296.78
Crystal 2 | 0.507 | 263.56

[3], Crystal 1, Large sample (1 g) DSC
Conditions | molar heat capacity at constant pressure
261.1 K | 235.9 J/K/mol
261.23 K | 236.1 J/K/mol
264 K | 238.7 J/K/mol and 238.8 J/K/mol
267 K | 241.8 J/K/mol and 241.9 J/K/mol
270 K | 245.1 J/K/mol and 245.3 J/K/mol
273 K | 248.9 J/K/mol and 249 J/K/mol
276 K | 252.7 J/K/mol and 252.8 J/K/mol
279 K | 256.9 J/K/mol
282 K | 261.4 J/K/mol and 261.5 J/K/mol
283.88 K | 264.3 J/K/mol
284.25 K | 265.2 J/K/mol

[3], Liquid
Conditions | molar heat capacity at constant pressure
301.94 K, Large sample (1 g) DSC | 295.6 J/K/mol
302.06 K, Large sample (1 g) DSC | 295.8 J/K/mol
305 K, Large sample (1 g) DSC | 299.1 J/K/mol
310 K, Large sample (1 g) DSC | 304.6 J/K/mol
315 K, Large sample (1 g) DSC | 310.1 J/K/mol and 310 J/K/mol
318.15 K, Small sample (50 mg) DSC | 313.1 J/K/mol
320 K, Large sample (1 g) DSC | 315.1 J/K/mol
323.14 K, Small sample (50 mg) DSC | 318.2 J/K/mol
325 K, Large sample (1 g) DSC | 320.2 J/K/mol
328.14 K, Small sample (50 mg) DSC | 323.1 J/K/mol
330 K, Large sample (1 g) DSC | 325 J/K/mol and 324.9 J/K/mol
333.14 K, Small sample (50 mg) DSC | 327.7 J/K/mol
335 K, Large sample (1 g) DSC | 329.4 J/K/mol and 329.3 J/K/mol
338.14 K, Small sample (50 mg) DSC | 332.6 J/K/mol
340 K, Large sample (1 g) DSC | 333.7 J/K/mol
343.14 K, Small sample (50 mg) DSC | 337 J/K/mol
345 K, Large sample (1 g) DSC | 338.4 J/K/mol and 338.3 J/K/mol
348.13 K, Small sample (50 mg) DSC | 341.1 J/K/mol
350 K, Large sample (1 g) DSC | 343 J/K/mol and 342.9 J/K/mol
353.13 K, Small sample (50 mg) DSC | 345.4 J/K/mol
355 K, Large sample (1 g) DSC | 347.1 J/K/mol and 347 J/K/mol
357.87 K, Large sample (1 g) DSC | 349.1 J/K/mol
357.94 K, Large sample (1 g) DSC | 349.1 J/K/mol
358.13 K, Small sample (50 mg) DSC | 349.5 J/K/mol
363.12 K, Small sample (50 mg) DSC | 353.5 J/K/mol
366.11 K, Small sample (50 mg) DSC | 355.8 J/K/mol
369.12 K, Small sample (50 mg) DSC | 357.9 J/K/mol
372.13 K, Small sample (50 mg) DSC | 359.6 J/K/mol
375.14 K, Small sample (50 mg) DSC | 361.4 J/K/mol
378.12 K, Small sample (50 mg) DSC | 363 J/K/mol
381.14 K, Small sample (50 mg) DSC | 364.4 J/K/mol
384.12 K, Small sample (50 mg) DSC | 365.8 J/K/mol
387.13 K, Small sample (50 mg) DSC | 366.9 J/K/mol
390.11 K, Small sample (50 mg) DSC | 367.8 J/K/mol
393.12 K, Small sample (50 mg) DSC | 368.7 J/K/mol
396.14 K, Small sample (50 mg) DSC | 369.4 J/K/mol
399.12 K, Small sample (50 mg) DSC | 370 J/K/mol
402.13 K, Small sample (50 mg) DSC | 371 J/K/mol
405.12 K, Small sample (50 mg) DSC | 371.6 J/K/mol
408.13 K, Small sample (50 mg) DSC | 371.9 J/K/mol
411.11 K, Small sample (50 mg) DSC | 372.3 J/K/mol
414.12 K, Small sample (50 mg) DSC | 372.6 J/K/mol
417.13 K, Small sample (50 mg) DSC | 372.9 J/K/mol
420.12 K, Small sample (50 mg) DSC | 373.1 J/K/mol
423.13 K, Small sample (50 mg) DSC | 373.2 J/K/mol
426.11 K, Small sample (50 mg) DSC | 373.2 J/K/mol
429.19 K, Small sample (50 mg) DSC | 373.2 J/K/mol
432.31 K, Small sample (50 mg) DSC | 373.2 J/K/mol
435.12 K, Small sample (50 mg) DSC | 373.2 J/K/mol
438.13 K, Small sample (50 mg) DSC | 373 J/K/mol
441.14 K, Small sample (50 mg) DSC | 372.8 J/K/mol
444.13 K, Small sample (50 mg) DSC | 372.8 J/K/mol
447.14 K, Small sample (50 mg) DSC | 372.7 J/K/mol
450.12 K, Small sample (50 mg) DSC | 372.5 J/K/mol
453.13 K, Small sample (50 mg) DSC | 372.6 J/K/mol
456.14 K, Small sample (50 mg) DSC | 372.6 J/K/mol
459.13 K, Small sample (50 mg) DSC | 372.6 J/K/mol
462.14 K, Small sample (50 mg) DSC | 373 J/K/mol
465.12 K, Small sample (50 mg) DSC | 373.5 J/K/mol
468.14 K, Small sample (50 mg) DSC | 374.1 J/K/mol
471.14 K, Small sample (50 mg) DSC | 374.6 J/K/mol
